Test results as given in ChEMBL document CHEMBL4825745, “Novel Substituted Piperidine-2,6-dione Derivatives for Treating Sickle Cell Disease and β-Thalassemia” (ACS Med Chem Lett, 2021).

Target: Protein Wiz (Homo sapiens, UniProt O95785)
Experiment: Induction of HiBit-tagged WIZ protein degradation expressed in HEK293T cells assessed as reduction in WIZ protein level incubated for 18 hrs by luminescence based assay
Assay type: cell-based

Sequence of Protein Wiz (O95785 whole entry): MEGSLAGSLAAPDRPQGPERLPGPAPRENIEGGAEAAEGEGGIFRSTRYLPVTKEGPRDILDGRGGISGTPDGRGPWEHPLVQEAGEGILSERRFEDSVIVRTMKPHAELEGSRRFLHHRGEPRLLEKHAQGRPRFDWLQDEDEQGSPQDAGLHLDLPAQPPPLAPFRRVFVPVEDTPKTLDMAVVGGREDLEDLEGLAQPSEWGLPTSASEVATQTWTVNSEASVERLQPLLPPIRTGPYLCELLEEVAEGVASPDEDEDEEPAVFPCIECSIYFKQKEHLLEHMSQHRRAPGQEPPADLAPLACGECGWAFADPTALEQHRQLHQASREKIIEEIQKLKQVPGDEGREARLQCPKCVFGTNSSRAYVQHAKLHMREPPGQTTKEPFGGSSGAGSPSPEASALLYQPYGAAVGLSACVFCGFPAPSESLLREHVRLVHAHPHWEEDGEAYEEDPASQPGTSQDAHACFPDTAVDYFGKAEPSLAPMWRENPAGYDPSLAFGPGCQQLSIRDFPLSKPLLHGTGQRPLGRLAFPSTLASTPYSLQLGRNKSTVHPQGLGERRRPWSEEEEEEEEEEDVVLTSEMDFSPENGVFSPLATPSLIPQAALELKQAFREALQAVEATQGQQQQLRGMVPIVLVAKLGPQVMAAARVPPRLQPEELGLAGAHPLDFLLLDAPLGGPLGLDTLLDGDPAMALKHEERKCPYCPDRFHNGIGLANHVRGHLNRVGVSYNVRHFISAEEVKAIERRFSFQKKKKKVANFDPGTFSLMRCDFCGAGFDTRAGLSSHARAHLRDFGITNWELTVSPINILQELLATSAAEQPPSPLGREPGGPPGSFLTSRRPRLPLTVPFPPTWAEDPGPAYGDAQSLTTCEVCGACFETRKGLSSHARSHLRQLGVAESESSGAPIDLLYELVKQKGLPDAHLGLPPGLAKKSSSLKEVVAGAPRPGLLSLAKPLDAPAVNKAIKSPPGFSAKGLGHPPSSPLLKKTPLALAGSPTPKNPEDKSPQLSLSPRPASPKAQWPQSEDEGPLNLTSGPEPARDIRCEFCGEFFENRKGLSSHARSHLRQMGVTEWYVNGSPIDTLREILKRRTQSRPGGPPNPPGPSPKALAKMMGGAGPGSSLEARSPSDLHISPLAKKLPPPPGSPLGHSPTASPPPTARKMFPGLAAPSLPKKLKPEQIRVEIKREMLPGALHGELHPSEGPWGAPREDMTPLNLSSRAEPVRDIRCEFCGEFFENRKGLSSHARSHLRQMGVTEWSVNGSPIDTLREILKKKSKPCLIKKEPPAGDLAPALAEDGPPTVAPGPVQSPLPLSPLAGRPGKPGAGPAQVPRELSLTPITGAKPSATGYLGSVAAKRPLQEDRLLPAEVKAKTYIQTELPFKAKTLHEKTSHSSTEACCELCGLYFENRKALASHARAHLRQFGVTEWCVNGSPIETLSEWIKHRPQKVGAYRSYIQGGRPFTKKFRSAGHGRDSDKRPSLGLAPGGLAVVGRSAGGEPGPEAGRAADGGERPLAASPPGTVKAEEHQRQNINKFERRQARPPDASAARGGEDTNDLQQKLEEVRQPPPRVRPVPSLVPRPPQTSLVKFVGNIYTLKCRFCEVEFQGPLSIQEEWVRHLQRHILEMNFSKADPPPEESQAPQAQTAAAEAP

SMILES	AC50
O=C1CCC(N2Cc3cc(OC[C@H]4CCCCN4Cc4ccc(C5=CCOCC5)cc4)ccc3C2=O)C(=O)N1 (stereo partly specified)	350 pM
COc1ccc(CN2CCCC[C@@H]2COc2ccc3c(c2)CN(C2CCC(=O)NC2=O)C3=O)c(OC)c1 (stereo partly specified)	520 pM
O=C1CCC(N2Cc3cc(OC[C@H]4CCCCN4Cc4ccc5c(c4)OC(F)(F)O5)ccc3C2=O)C(=O)N1 (stereo partly specified)	470 pM

Now from value to molecule:

AC50	SMILES
220 pM	O=C1CCC(N2Cc3cc(OC[C@H]4CCCCN4Cc4ccc(C5(C(F)(F)F)CC5)cc4)ccc3C2=O)C(=O)N1 (stereo partly specified)
83 pM	CC(C)(C)c1ccc(CN2CCCC[C@@H]2COc2ccc3c(c2)CN(C2CCC(=O)NC2=O)C3=O)cc1 (stereo partly specified)
370 pM	O=C1CCC(N2Cc3cc(OC[C@H]4CCCCN4Cc4ccc(N5CCCCC5)cc4)ccc3C2=O)C(=O)N1 (stereo partly specified)
